In patent US12227501B2, “3-amino-2-[2-(acylamino)pyridin-4-yl]-1,5,6,7-tetrahydro-4h-pyrrolo[3,2-c]pyridin-4-one as CSNK1 inhibitors” (Bayer Aktiengesellschaft, priority 2019, dated 2025):
Where two headings read alike, the source gives them in different places.

What was measured:
Type in all cases: biochemical
human CSNK1A1 [1] = molecular target: T1, human CSNK1A1 (Homo sapiens (Human), UniProt P48729); experiment: CSNK1A1 Assay 2 (ADP-Glo, 1 μM ATP); details: substrate biotin-Ahx-KRRRAL-pS-VASLPGL, read-out: CSNK1A1 Assay 2 IC50 [mol/l] (median)
T1 sequence (P48729 whole entry, the tested form may be a part): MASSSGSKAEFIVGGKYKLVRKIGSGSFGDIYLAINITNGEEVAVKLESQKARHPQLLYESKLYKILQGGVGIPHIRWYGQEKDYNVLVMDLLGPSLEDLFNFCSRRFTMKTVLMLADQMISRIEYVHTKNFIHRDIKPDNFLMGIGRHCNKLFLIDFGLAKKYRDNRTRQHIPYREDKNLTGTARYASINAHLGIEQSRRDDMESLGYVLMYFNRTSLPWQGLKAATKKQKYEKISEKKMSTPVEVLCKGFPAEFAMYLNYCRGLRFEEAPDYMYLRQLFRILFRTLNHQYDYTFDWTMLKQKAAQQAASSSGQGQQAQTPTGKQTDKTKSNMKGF
How it was run: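 Full-length human CSNK1A1 as an N-terminal GST fusion (baculovirus/insect cells) with biotinylated peptide substrate biotin-Ahx-KRRRAL-pS-VASLPGL and 1 μM ATP, in HEPES pH 7.5 buffer. Compounds were pre-incubated with enzyme (~0.0375 ng/μL) for 15 min at 22 °C. Generated ADP was read by ADP-Glo luminescence as the activity measure.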

human CSNK1D = human CSNK1D (Homo sapiens (Human), UniProt P48730); experiment: CSNK1D Assay (ADP-Glo, 1 μM ATP); details: read-out: CSNK1D IC50 [mol/l] (median)
human CSNK1D, sequence (P48730 whole entry): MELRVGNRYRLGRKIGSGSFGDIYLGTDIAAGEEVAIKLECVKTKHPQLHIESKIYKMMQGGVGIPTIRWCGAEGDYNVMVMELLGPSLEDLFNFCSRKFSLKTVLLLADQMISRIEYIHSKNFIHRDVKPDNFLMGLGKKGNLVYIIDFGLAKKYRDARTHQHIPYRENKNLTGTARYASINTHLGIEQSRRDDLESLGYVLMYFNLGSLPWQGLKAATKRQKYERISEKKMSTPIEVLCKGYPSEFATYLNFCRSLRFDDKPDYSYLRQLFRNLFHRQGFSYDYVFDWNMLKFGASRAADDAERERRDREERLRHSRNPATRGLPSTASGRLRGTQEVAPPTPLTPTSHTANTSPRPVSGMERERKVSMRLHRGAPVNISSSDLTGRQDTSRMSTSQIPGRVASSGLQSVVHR
How it was run: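 GST-tagged full-length human CSNK1D from baculovirus-infected insect cells, typically ~0.5 ng/μL, with biotinylated peptide substrate and 1 μM ATP in HEPES pH 7.5 buffer. Compound is preincubated with enzyme 15 min at 22 °C. ADP formed is quantified by ADP-Glo luminescence.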

[2] = molecular target: wild-type Epidermal Growth Factor Receptor (EGFR) (Homo sapiens (Human), UniProt P00533); experiment: WT-EGFR Kinase Assay (TR-FRET, 2 mM ATP)
wild-type Epidermal Growth Factor Receptor (EGFR), sequence (P00533 669-1210): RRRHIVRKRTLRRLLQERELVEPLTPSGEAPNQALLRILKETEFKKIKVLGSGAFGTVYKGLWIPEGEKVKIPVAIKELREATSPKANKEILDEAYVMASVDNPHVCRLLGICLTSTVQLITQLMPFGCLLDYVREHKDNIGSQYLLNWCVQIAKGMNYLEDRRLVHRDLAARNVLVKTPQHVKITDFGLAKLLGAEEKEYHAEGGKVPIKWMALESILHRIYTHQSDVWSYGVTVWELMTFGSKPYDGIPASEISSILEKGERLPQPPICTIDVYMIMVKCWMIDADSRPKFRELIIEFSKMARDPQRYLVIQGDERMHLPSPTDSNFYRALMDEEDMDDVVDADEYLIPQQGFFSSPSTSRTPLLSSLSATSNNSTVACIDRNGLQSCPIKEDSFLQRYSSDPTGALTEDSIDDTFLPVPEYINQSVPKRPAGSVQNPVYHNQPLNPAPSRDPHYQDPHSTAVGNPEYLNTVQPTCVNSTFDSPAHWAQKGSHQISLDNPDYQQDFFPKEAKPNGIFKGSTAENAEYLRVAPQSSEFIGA

human CSNK1A1 [3] = molecular target: T1, human CSNK1A1; experiment: CSNK1A1 High ATP Assay (ADP-Glo, 1 mM ATP); details: read-out: CSNK1A1 high ATP assay IC50 [mol/l] (median)
How it was run: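 GST-tagged full-length human CSNK1A1 from baculovirus-infected insect cells (typically about 0.4 ng/μL), pre-incubated with compound 15 min at 22 °C. Reaction with biotinylated peptide biotin-Ahx-KRRRAL-pS-VASLPGL at 1 mM ATP. ADP formed read by ADP-Glo luminescence.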

[4] = read-out: EGFR Wildtyp- 2 mM ATP IC50 [mol/l] (median)
[5] = EGFR Wildtyp- 2 mM ATP IC50 [mol/l] (median)

SMILES	IC50 (human CSNK1A1 [1])	IC50 (human CSNK1D)	IC50 [2, 4]	IC50 (human CSNK1A1 [3])	IC50 [2, 5]
CC1Cc2[nH]c(-c3ccnc(NC(=O)C(CC(F)F)c4ccc(F)cc4)c3)c(Nc3ccccc3F)c2C(=O)N1C (single isomer, unassigned; (+)) [Example 105, (+)-4,4-difluoro-N-{4-[3-(2-fluoroanilino)-5,6-dimethyl-4-oxo-4,5,6,7-tetrahydro-1H-pyrrolo[3,2-c]pyridin-2-yl]pyridin-2-yl}-2-(4-fluorophenyl)butanamide]	4.06 nM	5.45 nM	> 20000 nM	94.5 nM	–
CC(C(=O)Nc1cc(-c2[nH]c3c(c2Nc2ccccc2)C(=O)N(C)C2(CCC2)C3)ccn1)c1ccc(F)cc1 (racemic) [Example 157, N-[4-(3′-anilino-5′-methyl-4′-oxo-1′,4′,5′,7′-tetrahydrospiro[cyclobutane-1,6′-pyrrolo[3,2-c]pyridin]-2′-yl)pyridin-2-yl]-2-(4-fluorophenyl)propanamide (Racemate)]	8.76 nM	15.8 nM	–	50.8 nM	> 20000 nM
CC(C(=O)Nc1cc(-c2[nH]c3c(c2Nc2ccccc2)C(=O)NCC3)ccn1)c1ccc(F)cc1 (single isomer, unassigned) [Example 11, N-[4-(3-anilino-4-oxo-4,5,6,7-tetrahydro-1H-pyrrolo[3,2-c]pyridin-2-yl)pyridin-2-yl]-2-(4-fluorophenyl)propanamide]	30.4 nM	30.8 nM	–	3970 nM	2290 nM
CC(C(=O)Nc1cc(-c2[nH]c3c(c2Nc2ccccc2)C(=O)N(C)C(C)C3)ccn1)c1ccc(F)cc1 (single isomer, unassigned; (-)) [Example 94, (−)-(2RS)—N-{4-[(6R*)-3-anilino-5,6-dimethyl-4-oxo-4,5,6,7-tetrahydro-1H-pyrrolo[3,2-c]pyridin-2-yl]pyridin-2-yl}-2-(4-fluorophenyl)propanamide]	4.33 nM	7.02 nM	–	154 nM	4410 nM
Cc1ccc(CC(=O)Nc2cc(-c3[nH]c4c(c3Nc3ccccc3)C(=O)N(C)CC4)ccn2)cc1 [Example 68, N-[4-(3-anilino-5-methyl-4-oxo-4,5,6,7-tetrahydro-1H-pyrrolo[3,2-c]pyridin-2-yl)pyridin-2-yl]-2-(4-methylphenyl)acetamide]	3.2 nM	3.63 nM	2100 nM	74.2 nM	–
CN1CCc2[nH]c(-c3ccnc(NC(=O)C(CC(F)F)c4ccc(F)cc4)c3)c(Nc3ccccc3)c2C1=O (single isomer, unassigned; (+)) [Example 63, (+)-N-[4-(3-anilino-5-methyl-4-oxo-4,5,6,7-tetrahydro-1H-pyrrolo[3,2-c]pyridin-2-yl)pyridin-2-yl]-4,4-difluoro-2-(4-fluorophenyl)butanamide]	2.12 nM	4 nM	–	12.1 nM	6680 nM
CC1Cc2[nH]c(-c3ccnc(NC(=O)Cc4ccncc4)c3)c(Nc3ccccc3)c2C(=O)N1C (single isomer, unassigned; (+)) [Example 98, (+)-N-{4-[(6R*)-3-anilino-5,6-dimethyl-4-oxo-4,5,6,7-tetrahydro-1H-pyrrolo[3,2-c]pyridin-2-yl]pyridin-2-yl}-2-(pyridin-4-yl)acetamide]	4.16 nM	6.13 nM	–	149 nM	4340 nM
CN1CCc2[nH]c(-c3ccnc(NC(=O)Cc4ccccn4)c3)c(Nc3ccccc3)c2C1=O [Example 115, N-[4-(3-anilino-5-methyl-4-oxo-4,5,6,7-tetrahydro-1H-pyrrolo[3,2-c]pyridin-2-yl)pyridin-2-yl]-2-(pyridin-2-yl)acetamide]	2.41 nM	5.09 nM	3670 nM	248 nM	–
CN1CCc2[nH]c(-c3ccnc(NC(=O)C(CC(F)F)c4ccc(F)cc4)c3)c(Nc3ccccc3)c2C1=O (racemic) [Example 61, N-[4-(3-anilino-5-methyl-4-oxo-4,5,6,7-tetrahydro-1H-pyrrolo[3,2-c]pyridin-2-yl)pyridin-2-yl]-4,4-difluoro-2-(4-fluorophenyl)butanamide]	5.11 nM	7.68 nM	–	21.9 nM	8020 nM
CN1CCc2[nH]c(-c3ccnc(NC(=O)Cc4ccc(F)c(F)c4)c3)c(Nc3ccccc3)c2C1=O [Example 83, N-[4-(3-anilino-5-methyl-4-oxo-4,5,6,7-tetrahydro-1H-pyrrolo[3,2-c]pyridin-2-yl)pyridin-2-yl]-2-(3,4-difluorophenyl)acetamide]	3.03 nM	7.3 nM	2920 nM	61.4 nM	–
CC1Cc2[nH]c(-c3ccnc(NC(=O)Cc4ccc(F)cc4)c3)c(Nc3ccccc3)c2C(=O)N1C (single isomer, unassigned; (-)) [Example 90, (−)-N-{4-[3-anilino-5,6-dimethyl-4-oxo-4,5,6,7-tetrahydro-1H-pyrrolo[3,2-c]pyridin-2-yl]pyridin-2-yl}-2-(4-fluorophenyl)acetamide]	1.43 nM	3.79 nM	–	62.4 nM	561 nM
O=C1NC2(CCC2)Cc2[nH]c(-c3ccnc(NC(=O)C(CC(F)F)c4ccc(F)cc4)c3)c(Nc3cccc(F)c3Cl)c21 (single isomer, unassigned; enantiomer 2) [Example 125, (+)-N-{4-[3′-(2-chloro-3-fluoroanilino)-4′-oxo-1′,4′,5′,7′-tetrahydrospiro[cyclobutane-1,6′-pyrrolo[3,2-c]pyridin]-2′-yl]pyridin-2-yl}-4,4-difluoro-2-(4-fluorophenyl)butanamide (Enantiomer 2)]	10.5 nM	9.39 nM	> 20000 nM	12.1 nM	–
CC1Cc2[nH]c(-c3ccnc(NC(=O)C(CC(F)F)c4ccc(F)cc4)c3)c(Nc3ccccc3F)c2C(=O)N1C (single isomer, unassigned; (+)) [Example 103, (+)-(2RS)-4,4-difluoro-N-{4-[(6R*)-3-(2-fluoroanilino)-5,6-dimethyl-4-oxo-4,5,6,7-tetrahydro-1H-pyrrolo[3,2-c]pyridin-2-yl]pyridin-2-yl}-2-(4-fluorophenyl)butanamide]	12.8 nM	17.3 nM	–	268 nM	> 20000 nM
CN(C)CCCC(C(=O)Nc1cc(-c2[nH]c3c(c2Nc2ccccc2)C(=O)N(C)CC3)ccn1)c1ccccc1 (single isomer, unassigned; (+)) [Example 60, (+)-N-[4-(3-anilino-5-methyl-4-oxo-4,5,6,7-tetrahydro-1H-pyrrolo[3,2-c]pyridin-2-yl)pyridin-2-yl]-5-(dimethylamino)-2-phenylpentanamide]	7.34 nM	11.8 nM	–	437 nM	7340 nM
O=C1NC2(CCC2)Cc2[nH]c(-c3ccnc(NC(=O)C(CC(F)F)c4ccc(F)cc4)c3)c(Nc3ccccc3)c21 (single isomer, unassigned; (-)) [Example 56, (−)-N-[4-(3′-anilino-4′-oxo-1′,4′,5′,7′-tetrahydrospiro[cyclobutane-1,6′-pyrrolo[3,2-c]pyridin]-2′-yl)pyridin-2-yl]-4,4-difluoro-2-(4-fluorophenyl)butanamide]	19.2 nM	27.9 nM	–	1080 nM	857 nM
CC1Cc2[nH]c(-c3ccnc(NC(=O)Cc4ccc(F)cc4)c3)c(Nc3ccccc3F)c2C(=O)N1C (single isomer, unassigned; (+)) [Example 101, (+)-N-{4-[3-(2-fluoroanilino)-5,6-dimethyl-4-oxo-4,5,6,7-tetrahydro-1H-pyrrolo[3,2-c]pyridin-2-yl]pyridin-2-yl}-2-(4-fluorophenyl)acetamide]	3.74 nM	7.42 nM	–	258 nM	> 20000 nM
CC1(C)Cc2[nH]c(-c3ccnc(NC(=O)C(CN)c4ccc(F)cc4)c3)c(Nc3ccccc3)c2C(=O)N1 (single isomer, unassigned; enantiomer 1) [Example 140, 3-amino-N-[4-(3-anilino-6,6-dimethyl-4-oxo-4,5,6,7-tetrahydro-1H-pyrrolo[3,2-c]pyridin-2-yl)pyridin-2-yl]-2-(4-fluorophenyl)propanamide (Enantiomer 1)]	4.1 nM	9.95 nM	–	56.9 nM	> 20000 nM
Cc1ccccc1Nc1c(-c2ccnc(NC(=O)C(C)c3ccc(F)cc3)c2)[nH]c2c1C(=O)NC(C)(C)C2 (racemic) [Example 132, N-{4-[6,6-dimethyl-3-(2-methylanilino)-4-oxo-4,5,6,7-tetrahydro-1H-pyrrolo[3,2-c]pyridin-2-yl]pyridin-2-yl}-2-(4-fluorophenyl)propanamide (Racemate)]	24.3 nM	32.9 nM	–	915 nM	> 20000 nM
CC1(C)Cc2[nH]c(-c3ccnc(NC(=O)Cc4ccncc4)c3)c(Nc3ccccc3)c2C(=O)N1 [Example 51, N-[4-(3-anilino-6,6-dimethyl-4-oxo-4,5,6,7-tetrahydro-1H-pyrrolo[3,2-c]pyridin-2-yl)pyridin-2-yl]-2-(pyridin-4-yl)acetamide]	4.87 nM	6.67 nM	563 nM	25.8 nM	–
